# Molecular target: T1, chimeric human H3 receptor (Homo sapiens, UniProt Q9Y5N1)
# T1 construct: rat Galpha-i2 (Gnai2, rat); made in house; host or cells: Sf9 insect cells (baculovirus); P2 membranes
# Assay: Chimeric human H3 receptor screening GTP binding assay (inhibition of histamine-stimulated GTP-gamma35S binding, Example 8)
# Format: biochemical
# Conditions: 1 h; assay described in Example 8; symbol "!" in column headed Ki; read-out: Ki ("!": percent inhibition of agonist-induced GTP-gammaS binding to H3)
# Protocol: This Example illustrates a representative screening assay for evaluating inhibition of histamine-stimulated GTP-gamma^35S binding. Such GTP binding activity can be used to identify H3 antagonists and inverse agonists. A compound analyzed in this assay is referred to herein as a “test compound,” and the initial identification of antagonists and inverse agonists is performed using a test compound concentration of 4 μM.
# Four independent baculoviral stocks (one directing the expression of the chimeric human H3 receptor and three directing the expression of each of the three subunits of a heterotrimeric G-protein) are used to infect a culture of Sƒ9 cells as described above. P2 membranes are prepared as described above, and are resuspended by Dounce homogenization (tight pestle) in GTP binding assay buffer (50 mM Tris pH 7.4, 120 mM NaCl, 5 mM MgCl2, 2 mM EGTA, 1 mg/ml BSA, 0.2 mg/ml bacitracin, 0.02 mg/ml aprotinin, 0.01 mg/ml saponin, 10 μM GDP) and added to assay tubes at a concentration of 35 μg protein/reaction tube. Non-radiolabeled test compounds are added to separate reactions at a concentration of 4 μM along with 1 μM histamine (agonist). Reactions are initiated by the addition of 125 pM GTP-gamma^35S with a final assay volume of 0.20 ml.
# After a 60-min incubation at room temperature, reactions are terminated by vacuum filtration over GF/C filters (pre-soaked in 50 mM Tris pH 7.4, 120 mM NaCl plus 0.1% BSA) followed by washing with ice-cold buffer (50 mM Tris pH 7.4, 120 mM NaCl). The amount of receptor-bound (and thereby membrane-bound) GTP-gamma^35S is determined by measuring the bound radioactivity, preferably by liquid scintillation spectrometry of the washed filters. Non-specific binding is determined using 10 uM GTP-gammaS and typically represents less than 5 percent of total binding. After subtraction of non-specific binding, data is expressed as percent inhibition of 1 μM histamine signal.
# Neutral antagonists are those test compounds that reduce the histamine-stimulated GTP binding activity towards, but not below, baseline levels. In contrast, in the absence of added histamine, inverse agonists reduce the GTP binding activity of the receptor-containing membranes below baseline. Any test compound that elevates GTP binding activity above baseline in the absence of added histamine in this assay is defined as having agonist activity.
# T1 sequence (Q9Y5N1 with tags, fused parts or gaps): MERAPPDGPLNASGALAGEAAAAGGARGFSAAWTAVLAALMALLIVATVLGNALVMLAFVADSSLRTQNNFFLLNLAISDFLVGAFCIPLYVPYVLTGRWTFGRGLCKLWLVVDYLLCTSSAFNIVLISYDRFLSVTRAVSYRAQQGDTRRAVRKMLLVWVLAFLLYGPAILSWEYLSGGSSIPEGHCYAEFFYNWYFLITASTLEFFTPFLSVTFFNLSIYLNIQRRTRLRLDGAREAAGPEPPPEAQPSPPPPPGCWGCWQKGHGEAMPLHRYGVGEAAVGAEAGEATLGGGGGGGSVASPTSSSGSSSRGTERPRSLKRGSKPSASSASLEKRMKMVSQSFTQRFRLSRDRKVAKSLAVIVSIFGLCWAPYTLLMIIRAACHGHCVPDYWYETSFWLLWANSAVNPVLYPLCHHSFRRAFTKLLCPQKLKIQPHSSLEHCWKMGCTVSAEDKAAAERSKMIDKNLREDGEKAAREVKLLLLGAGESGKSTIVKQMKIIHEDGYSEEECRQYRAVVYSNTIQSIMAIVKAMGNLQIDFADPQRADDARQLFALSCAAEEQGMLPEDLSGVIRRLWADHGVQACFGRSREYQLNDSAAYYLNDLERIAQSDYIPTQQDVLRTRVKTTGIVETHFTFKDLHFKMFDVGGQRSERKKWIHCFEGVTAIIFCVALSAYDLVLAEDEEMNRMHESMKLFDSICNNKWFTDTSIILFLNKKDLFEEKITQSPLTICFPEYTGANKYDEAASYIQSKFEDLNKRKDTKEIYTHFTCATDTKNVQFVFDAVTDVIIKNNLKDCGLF
row,SMILES,inhibition at 4 µM
1,"CC(C)c1ccc(CC(=O)N2CCc3cnc(N4CCN(C5CCC5)CC4)nc3CC2)cc1 [Compound 521, 2-(4-cyclobutylpiperazin-1-yl)-7-[(4-isopropylphenyl)acetyl]-6,7,8,9-tetrahydro-5H-pyrimido[4,5-d]azepine]",≥ 90%
2,"Cc1cccc(C(=O)N2CCc3cnc(N4CCN(C5CCC5)CC4)nc3CC2)c1C [Compound 403, 2-(4-cyclobutylpiperazin-1-yl)-7-(2,3-dimethylbenzoyl)-6,7,8,9-tetrahydro-5H-pyrimido[4,5-d]azepine]",≥ 90%
3,"O=C(/C=C/c1ccccc1C(F)(F)F)N1CCc2cnc(N3CCN(C4CCC4)CC3)nc2CC1 [Compound 580, 2-(4-cyclobutylpiperazin-1-yl)-7-[(2E)-3-[2-(trifluoromethyl)phenyl]prop-2-enoyl]-6,7,8,9-tetrahydro-5H-pyrimido[4,5-d]azepine]",≥ 90%
4,"Cc1cc(C(=O)N2CCc3cnc(N4CCN(C5CCC5)CC4)nc3CC2)n(C(C)(C)C)n1 [Compound 505, 7-[(1-tert-butyl-3-methyl-1H-pyrazol-5-yl)carbonyl]-2-(4-cyclobutylpiperazin-1-yl)-6,7,8,9-tetrahydro-5H-pyrimido[4,5-d]azepine]",≥ 90%
5,"Cc1oc(C(C)(C)C)cc1C(=O)N1CCc2cnc(N3CCN(C4CCC4)CC3)nc2CC1 [Compound 466, 7-(5-tert-butyl-2-methyl-3-furoyl)-2-(4-cyclobutylpiperazin-1-yl)-6,7,8,9-tetrahydro-5H-pyrimido[4,5-d]azepine]",≥ 90%
6,"O=C(c1c(F)cccc1C(F)(F)F)N1CCc2cnc(N3CCN(C4CCC4)CC3)nc2CC1 [Compound 434, 2-(4-cyclobutylpiperazin-1-yl)-7-[2-fluoro-6-(trifluoromethyl)benzoyl]-6,7,8,9-tetrahydro-5H-pyrimido[4,5-d]azepine]",≥ 90%
7,"O=C(c1ccccc1Oc1ccccc1)N1CCc2cnc(N3CCN(C4CCC4)CC3)nc2CC1 [Compound 422, 2-(4-cyclobutylpiperazin-1-yl)-7-(2-phenoxybenzoyl)-6,7,8,9-tetrahydro-5H-pyrimido[4,5-d]azepine]",≥ 90%

# Same assay, conditions: 1 h; assay of Example 8; symbol "!" in column headed Ki; read-out: percent inhibition of agonist-induced GTP-gammaS binding to H3
row,SMILES,inhibition at 4 µM
1,"CC(C)CCN1CCc2cnc(N3CCN(C4CCC4)CC3)nc2CC1 [Compound 246, 2-(4-cyclobutylpiperazin-1-yl)-7-(3-methylbutyl)-6,7,8,9-tetrahydro-5H-pyrimido[4,5-d]azepine]",≥ 90%
2,"O=C(/C=C/c1ccc(F)cc1Cl)N1CCc2cnc(N3CCN(C4CCC4)CC3)nc2CC1 [Compound 584, 7-[(2E)-3-(2-chloro-4-fluorophenyl)prop-2-enoyl]-2-(4-cyclobutylpiperazin-1-yl)-6,7,8,9-tetrahydro-5H-pyrimido[4,5-d]azepine]",≥ 90%
3,"COCCOCC(=O)N1CCc2cnc(N3CCN(C4CCC4)CC3)nc2CC1 [Compound 228, 2-(4-cyclobutylpiperazin-1-yl)-7-[(2-methoxyethoxy)acetyl]-6,7,8,9-tetrahydro-5H-pyrimido[4,5-d]azepine]",≥ 90%
4,"Cc1c(F)cccc1CN1CCc2cnc(N3CCN(C4CCC4)CC3)nc2CC1 [Compound 264, 2-(4-cyclobutylpiperazin-1-yl)-7-(3-fluoro-2-methylbenzyl)-6,7,8,9-tetrahydro-5H-pyrimido[4,5-d]azepine]",≥ 90%
5,"Cc1ccccc1OC(C)C(=O)N1CCc2cnc(N3CCN(C4CCC4)CC3)nc2CC1 (centres unmarked) [Compound 346, 2-(4-cyclobutylpiperazin-1-yl)-7-[2-(2-methylphenoxy)propanoyl]-6,7,8,9-tetrahydro-5H-pyrimido[4,5-d]azepine]",≥ 90%
6,"O=C(c1ccc2c(c1)OCO2)N1CCc2cnc(N3CCN(C4CCC4)CC3)nc2CC1 [Compound 377, 7-(1,3-benzodioxol-5-ylcarbonyl)-2-(4-cyclobutylpiperazin-1-yl)-6,7,8,9-tetrahydro-5H-pyrimido[4,5-d]azepine]",≥ 90%
7,"Cc1ccc(C(=O)N2CCc3cnc(N4CCN(C5CCC5)CC4)nc3CC2)cc1 [Compound 188, 2-(4-cyclobutylpiperazin-1-yl)-7-(4-methylbenzoyl)-6,7,8,9-tetrahydro-5H-pyrimido[4,5-d]azepine]",≥ 90%
8,"COc1ccc(OC)c(CC(=O)N2CCc3cnc(N4CCN(C5CCC5)CC4)nc3CC2)c1 [Compound 308, 2-(4-cyclobutylpiperazin-1-yl)-7-[(2,5-dimethoxyphenyl)acetyl]-6,7,8,9-tetrahydro-5H-pyrimido[4,5-d]azepine]",≥ 90%
9,"O=C(c1ccc(OC(F)(F)F)cc1)N1CCc2cnc(N3CCN(C4CCC4)CC3)nc2CC1 [Compound 373, 2-(4-cyclobutylpiperazin-1-yl)-7-[4-(trifluoromethoxy)benzoyl]-6,7,8,9-tetrahydro-5H-pyrimido[4,5-d]azepine]",≥ 90%
10,"COc1ccc(C(=O)N2CCc3cnc(N4CCN(C5CCC5)CC4)nc3CC2)cc1OC1CCCC1 [Compound 376, 2-(4-cyclobutylpiperazin-1-yl)-7-[3-(cyclopentyloxy)-4-methoxybenzoyl]-6,7,8,9-tetrahydro-5H-pyrimido[4,5-d]azepine]",≥ 90%
11,"Cc1cccc(OC(C)C(=O)N2CCc3cnc(N4CCN(C5CCC5)CC4)nc3CC2)c1C (centres unmarked) [Compound 347, 2-(4-cyclobutylpiperazin-1-yl)-7-[2-(2,3-dimethylphenoxy)propanoyl]-6,7,8,9-tetrahydro-5H-pyrimido[4,5-d]azepine]",≥ 90%

# Same assay, conditions: symbol ! in Ki; test compound 4 μM, 1 μM histamine; read-out: percent inhibition of agonist-induced GTP-gammaS binding to H3
row,SMILES,inhibition at 4 µM
1,"Cc1ccc(CN2CCc3nc(N4CCN(C5CCC5)CC4)ncc3C2)cc1C [Compound 637, 2-(4-cyclobutylpiperazin-1-yl)-6-(3,4-dimethylbenzyl)-5,6,7,8-tetrahydropyrido[4,3-d]pyrimidine]",≥ 90%
2,"COC(=O)c1ccc(CN2CCc3c(ncnc3N3CCN(C4CCC4)CC3)C2)cc1 [Compound 139, methyl 4-{[4-(4-cyclobutylpiperazin-1-yl)-5,8-dihydropyrido[3,4-d]pyrimidin-7(6H)-yl]methyl}benzoate]",≥ 90%
3,"COc1ccc(CN2CCc3c(ncnc3N3CCN(C4CCC4)CC3)C2)c(OC)c1 [Compound 79, 4-(4-cyclobutylpiperazin-1-dimethoxybenzyl)-5,6,7,8-tetrahydropyrido[3,4-d]pyrimidine]",≥ 90%
4,"COc1ccc(OC)c(C(C)N2CCc3c(ncnc3N3CCN(C4CCC4)CC3)C2)c1 (centres unmarked) [Compound 132, 4-(4-cyclobutylpiperazin-1-yl)-7-[1-(2,5-dimethoxyphenyl)ethyl]-5,6,7,8-tetrahydropyrido[3,4-d]pyrimidine]",≥ 90%
5,"c1ccc2ncc(CN3CCc4ncnc(N5CCN(C6CCC6)CC5)c4CC3)cc2c1 [Compound 152, 4-(4-cyclobutylpiperazin-1-yl)-7-(quinolin-3-ylmethyl)-6,7,8,9-tetrahydro-5H-pyrimido[4,5-d]azepine]",≥ 90%
6,"Cc1cc(CN2CCc3nc(N4CCN(C5CCC5)CC4)ncc3C2)n(C)n1 [Compound 622, 2-(4-cyclobutylpiperazin-1-yl)-6-[(1,3-dimethyl-1H-pyrazol-5-yl)methyl]-5,6,7,8-tetrahydropyrido[4,3-d]pyrimidine]",≥ 90%
7,"CCCC(C)C(C)N1CCc2c(ncnc2N2CCN(C3CCC3)CC2)C1 (centres unmarked) [Compound 125, 4-(4-cyclobutylpiperazin-1-yl)-7-(1,2-dimethylpentyl)-5,6,7,8-tetrahydropyrido[3,4-d]pyrimidine]",≥ 90%
8,"COc1ccc(C(=O)N2CCc3c(ncnc3N3CCN(C4CCC4)CC3)C2)cc1 [Compound 27, 4-(4-cyclobutylpiperazin-1-yl)-7-(4-methoxybenzoyl)-5,6,7,8-tetrahydropyrido[3,4-d]pyrimidine]",≥ 90%
9,"CC(C)CC(=O)N1CCc2c(ncnc2N2CCN(C3CCC3)CC2)C1 [Compound 45, 4-(4-cyclobutylpiperazin-1-yl)-7-(3-methylbutanoyl)-5,6,7,8-tetrahydropyrido[3,4-d]pyrimidine]",≥ 90%
10,"CCC(CC)CN1CCc2ncnc(N3CCN(C4CCC4)CC3)c2CC1 [Compound 168, 4-(4-cyclobutylpiperazin-1-yl)-7-(2-ethylbutyl)-6,7,8,9-tetrahydro-5H-pyrimido[4,5-d]azepine]",≥ 90%
11,"Cn1ccnc1CN1CCc2nc(N3CCN(C4CCC4)CC3)ncc2C1 [Compound 616, 2-(4-cyclobutylpiperazin-1-yl)-6-[(1-methyl-1H-imidazol-2-yl)methyl]-5,6,7,8-tetrahydropyrido[4,3-d]pyrimidine]",≥ 90%

# — patent publication US20080051387A1, “TETRAHYDROPYRIDO[3,4-D]PYRIMIDINES AND RELATED ANALOGUES” (priority 2006, published 2008)
